Measured values taken from patent publication US20090143279A1 (priority 2007, published 2009).
Read-outs that look alike come from different tables or passages of the source.

Key:
[1] = test system: mitochondrial membrane potential; type: cell-based, mouse; conditions: for ΔΨm (composite Z-score): normalized score vs mock-treated (DMSO) wells
reactive oxygen species = type: cell-based, mouse; conditions: for ROS (composite Z-score): normalized score vs mock-treated (DMSO) wells
OXPHOS gene expression = type: cell-based, mouse; conditions: for GE-HTS (composite Z-score): normalized score vs mock-treated (DMSO) wells
nuOXPHOS transcripts = type: cell-based, mouse; conditions: for nucOX (composite Z-score): normalized score vs mock-treated (DMSO) wells
mtOXPHOS transcripts = type: cell-based, mouse; conditions: for mitoOX (composite Z-score): normalized score vs mock-treated (DMSO) wells
cytochrome c = type: cell-based, mouse; conditions: for cyt c (composite Z-score): normalized score vs mock-treated (DMSO) wells
C2C12 myotubes = conditions: for Viability (composite Z-score): normalized score vs mock-treated (DMSO) wells
[2] = test system: cellular dehydrogenase activity; conditions: for MTT (composite Z-score): normalized score vs mock-treated (DMSO) wells
[3] = composite Z-score vs DMSO, Conc 9.58 μM
[4] = composite Z-score vs DMSO, Conc 20 μM
[5] = composite Z-score vs mock-treated (DMSO) wells, concentration of each compound in μM
[6] = 20 μM, composite Z-score vs DMSO
[7] = composite Z-score vs DMSO wells, Conc 20 μM
[8] = composite Z-score vs mock-treated (DMSO) wells, Conc 20 μM
[9] = normalized composite Z-score vs mock-treated (DMSO) wells, Conc 20 μM

CN1CCCC(CC2c3ccccc3Sc3ccccc32)C1 (stereo not shown) [metixene]
ΔΨm [1]: −0.713
ROS (reactive oxygen species): −0.834
GE-HTS (OXPHOS gene expression): −1.190
nucOX (nuOXPHOS transcripts): −1.058
mitoOX (mtOXPHOS transcripts): −1.236
cyt c (cytochrome c): 0.097
Viability (C2C12 myotubes): 1.221
MTT [2]: −0.786

COCCc1ccc(OCC(O)CNC(C)C)cc1 (stereo not shown) [metoprolol, reference compound]
ΔΨm [1, 3]: −0.997
ΔΨm [1, 4]: −0.515
ROS (reactive oxygen species; [3]): 0.253
ROS (reactive oxygen species; [4]): 0.652
GE-HTS (OXPHOS gene expression; [3]): −0.423
GE-HTS (OXPHOS gene expression; [4]): 0.450
nucOX (nuOXPHOS transcripts; [3]): −0.430
nucOX (nuOXPHOS transcripts; [4]): 0.546
mitoOX (mtOXPHOS transcripts; [3]): −0.342
mitoOX (mtOXPHOS transcripts; [4]): 0.241
cyt c (cytochrome c; [3]): 0.496
cyt c (cytochrome c; [4]): 0.596
Viability (C2C12 myotubes; [3]): 0.437
Viability (C2C12 myotubes; [4]): 0.326
MTT [2, 3]: −1.894
MTT [2, 4]: −1.660

COc1cc2occ(-c3cc4c(cc3OC)OCO4)c(=O)c2cc1OC [milldurone]
ΔΨm [1, 5]: −0.569
ROS (reactive oxygen species; [5]): 0.680
GE-HTS (OXPHOS gene expression; [5]): 0.343
nucOX (nuOXPHOS transcripts; [5]): 0.605
mitoOX (mtOXPHOS transcripts; [5]): −0.215
cyt c (cytochrome c; [5]): 0.465
Viability (C2C12 myotubes; [5]): −0.401
MTT [2, 5]: −0.713

Clc1ccc(C(c2ccccc2Cl)C(Cl)Cl)cc1 (stereo not shown) [mitotane]
ΔΨm [1, 6]: −0.542
ROS (reactive oxygen species; [6]): 0.460
GE-HTS (OXPHOS gene expression; [6]): −0.030
nucOX (nuOXPHOS transcripts; [6]): 0.072
mitoOX (mtOXPHOS transcripts; [6]): −0.244
cyt c (cytochrome c; [6]): −0.216
Viability (C2C12 myotubes; [6]): −1.631
MTT [2, 6]: −1.708

CCOC(=O)[N-]c1cn(N2CCOCC2)n[o+]1 [molsidomine]
ΔΨm [1, 7]: −0.537
ROS (reactive oxygen species; [7]): −0.398
GE-HTS (OXPHOS gene expression; [7]): 0.250
nucOX (nuOXPHOS transcripts; [7]): 0.331
mitoOX (mtOXPHOS transcripts; [7]): 0.106
cyt c (cytochrome c): −0.533
cyt c (cytochrome c; [7]): 0.339
Viability (C2C12 myotubes; [7]): −0.665
MTT [2, 7]: −0.651

COc1ccc([C@H]2COc3cc(O)ccc3C2)c(OC)c1O [mucronulatol]
ΔΨm (composite Z-score) ([1]; Conc 20 μM): 0.006
ROS (composite Z-score) (reactive oxygen species; Conc 20 μM): −0.187
GE-HTS (composite Z-score) (OXPHOS gene expression; Conc 20 μM): −0.345
nucOX (composite Z-score) (nuOXPHOS transcripts; Conc 20 μM): −0.104
mitoOX (composite Z-score) (mtOXPHOS transcripts; Conc 20 μM): −0.729
cyt c (composite Z-score) (cytochrome c; Conc 20 μM): −0.365
Viability (composite Z-score) (C2C12 myotubes; Conc 20 μM): 1.396
MTT (composite Z-score) ([2]; Conc 20 μM): −0.847

COc1ccc2c(c1)O[C@@H]1COc3cc(OC)c(OC)cc3[C@@H]1C2=O [mundoserone, reference compound]
ΔΨm [1, 8]: 0.837
ROS (reactive oxygen species; [8]): −0.608
GE-HTS (OXPHOS gene expression; [8]): −0.606
nucOX (nuOXPHOS transcripts; [8]): −0.643
mitoOX (mtOXPHOS transcripts; [8]): −0.452
cyt c (cytochrome c; [8]): 0.418
Viability (C2C12 myotubes; [8]): −0.425
MTT [2, 8]: −1.681

COc1c(-c2coc3cc4c(cc3c2=O)CC(O)C(C)(C)O4)ccc2c1C=CC(C)(C)O2 (stereo not shown) [mundulone, reference compound]
ΔΨm [1, 9]: 3.037
ROS (reactive oxygen species; [9]): −0.141
GE-HTS (OXPHOS gene expression; [9]): −1.719
nucOX (nuOXPHOS transcripts; [9]): −1.888
mitoOX (mtOXPHOS transcripts; [9]): −1.091
cyt c (cytochrome c; [9]): −0.843
Viability (C2C12 myotubes; [9]): −1.113
MTT [2, 9]: −2.487

c1cncc(C2=NCCC2)c1 [myosmine]
ΔΨm (composite Z-score) ([1]; Conc 27.36 μM): 0.326
ROS (composite Z-score) (reactive oxygen species; Conc 27.36 μM): 1.543
GE-HTS (composite Z-score) (OXPHOS gene expression; Conc 27.36 μM): 0.445
nucOX (composite Z-score) (nuOXPHOS transcripts; Conc 27.36 μM): 0.712
mitoOX (composite Z-score) (mtOXPHOS transcripts; Conc 27.36 μM): −0.195
cyt c (composite Z-score) (cytochrome c; Conc 27.36 μM): 1.184
Viability (composite Z-score) (C2C12 myotubes; Conc 27.36 μM): −0.497
MTT (composite Z-score) ([2]; Conc 27.36 μM): −1.423

COc1ccc2cc([C@H](C)CO)ccc2c1 [naproxol]
ΔΨm [1, 4]: −0.500
ROS (reactive oxygen species; [4]): −0.319
GE-HTS (OXPHOS gene expression; [4]): −0.895
nucOX (nuOXPHOS transcripts; [4]): −1.214
mitoOX (mtOXPHOS transcripts; [4]): −0.018
cyt c (cytochrome c; [4]): 0.993
Viability (C2C12 myotubes; [4]): 0.249
MTT [2, 4]: −1.522

NC[C@@H]1O[C@H](O[C@H]2[C@@H](O)[C@H](O[C@@H]3[C@@H](O)[C@H](N)C[C@H](N)[C@H]3O[C@H]3O[C@H](CN)[C@@H](O)[C@H](O)[C@H]3N)O[C@@H]2CO)[C@H](N)[C@@H](O)[C@@H]1O [neomycin]
ΔΨm [1, 4]: −0.599
ROS (reactive oxygen species; [4]): 1.203
GE-HTS (OXPHOS gene expression; [4]): 0.817
nucOX (nuOXPHOS transcripts; [4]): 0.598
mitoOX (mtOXPHOS transcripts; [4]): 1.160
cyt c (cytochrome c; [4]): 0.734
Viability (C2C12 myotubes; [4]): −1.255
MTT [2, 4]: −1.478

CC(=O)OC1CCC2(C)C(CCC3C2CCC2(C)C3CC3OC4(CCC(C)CO4)C(C)C32)C1 (stereo not shown) [neotigogenin acetate]
ΔΨm [1, 9]: −0.822
ROS (reactive oxygen species; [9]): −0.437
GE-HTS (OXPHOS gene expression; [9]): −0.890
nucOX (nuOXPHOS transcripts; [9]): −0.925
mitoOX (mtOXPHOS transcripts; [9]): −0.693
cyt c (cytochrome c; [9]): −0.049
Viability (C2C12 myotubes; [9]): −0.705
MTT [2, 9]: −1.611

O=C(Nc1ccc([N+](=O)[O-])cc1Cl)c1cc(Cl)ccc1O [niclosamide]
ΔΨm [1]: −3.700
ΔΨm [1, 6]: −4.256
ROS (reactive oxygen species): −3.069
ROS (reactive oxygen species; [6]): −3.862
GE-HTS (OXPHOS gene expression): −0.976
GE-HTS (OXPHOS gene expression; [6]): −1.042
nucOX (nuOXPHOS transcripts): −1.007
nucOX (nuOXPHOS transcripts; [6]): −0.288
mitoOX (mtOXPHOS transcripts): −0.755
mitoOX (mtOXPHOS transcripts; [6]): −2.299
cyt c (cytochrome c): −3.177
cyt c (cytochrome c; [6]): −2.947
Viability (C2C12 myotubes): −1.410
Viability (C2C12 myotubes; [6]): −0.944
MTT [2]: −3.816
MTT [2, 6]: −0.296
